The target of assay [1] is Recombinant human Bcl-2 protein (Homo sapiens (Human), UniProt P10415). Kind of assay: Bcl-2 TR-FRET Assay. The format is binding. The gist of the method: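 0.05 nM Bcl-2 pre-incubated 0.5 h at room temperature with 10-point compound dilutions (top final 1, 0.1, 0.02 or 0.01 uM) in 20 mM potassium phosphate pH 7.5, 50 mM NaCl, 1 mM EDTA, 0.05% Tween-20, 0.01% BSA; FITC-Bak peptide (0.5 nM) and anti-6His Tb cryptate added, 1 h. IC50 from four-parameter logistic fit.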
(In general: In TR-FRET formats the signal depends on donor and acceptor labels being close together.)

Assay [2] deals with recombinant human Bcl-2-G101V protein. Kind of assay: Bcl-2-G101V TR-FRET Assay. It is filed as binding. Conditions: for Ratio of Bcl-2 G101V/WT: ratio of biochemical IC50 Bcl-2 G101V / Bcl-2 WT. A digest of the protocol: (§1)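 Measures how compounds block Bcl-2-G101V engaging its ligand, by TR-FRET with 337 nm excitation and a 490/520 nm emission ratio; dose-response data give IC50 via a four-parameter logistic model.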

Assay [3] addresses recombinant human Bcl-2-G101V protein (Homo sapiens (Human), UniProt P10415, G101V). Nature of the assay: Bcl-2-G101V TR-FRET Assay. It is filed as binding. Conditions: Bcl-2 G101V mutant, TR-FRET; read-out: Biochemical assay (IC50, nM) Bcl-2 G101V. A digest of the protocol:
as §1

Assay [4] relates to BCL-2 G101V knock-in cell line H96 (derive from RS4;11). Nature of the assay: Bcl 2-G101V Knock-In RS4;11 Cell Proliferation Assay. It is filed as cell-based. Conditions: Homo sapiens, RS4-11, 48 h, RS4;11 Bcl-2 G101V knock-in clone H96, 48 hrs, CellTiter-GLO, read-out: Cellular proliferation assay (IC50, nM) RS4. The gist of the method: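 H96, a CRISPR-generated RS4;11 clone carrying BCL2-G101V knock-in (WES/RNA-seq validated), seeded 50,000 per well and exposed 48 h at 37 °C to 10-point dilutions topping at 1 or 10 μM. Viability by CellTiter-Glo luminescence; mean IC50.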
On the technique in general: Cellular ATP, detected with luciferase, serves as a proxy for viable cell number.

[5] abbreviates: Bcl-2 wild type, TR-FRET, read-out: Biochemical assay (IC50, nM) Bcl-2 WT.
The mark [6] stands for this setting: wild type Bcl-2, unit inferred, read-out: Bcl-2 WT.

Where two headings read alike, the source gives them in different places.

On to `COc1ccc(CN2CCN(C3CC4(CCN(c5ccc(C(=O)NS(=O)(=O)c6ccc(NCC7(F)CCOCC7)c([N+](=O)[O-])c6)c(Oc6cnc7[nH]ccc7c6)c5)CC4)C3)[C@H](c3ccccc3C(C)C)C2)cc1` (single isomer, unassigned) [Example 32, (R or S)-2-((1H-pyrrolo[2,3-b]pyridin-5-yl)oxy)-N-((4-(((4-fluorotetrahydro-2H-pyran-4-yl)methyl)amino)-3-nitrophenyl)sulfonyl)-4-(2-(2-(2-isopropylphenyl)-4-(4-methoxybenzyl)piperazin-1-yl)-7-azaspiro[3.5]nonan-7-yl)benzamide], for which the IC50 in assay [1] (setting [5]) came out at 0.096 nM; in assay [1] (setting [6]), 0.096 nM; in assay [3] it was 0.28 nM; in assay [4], 0.96 nM. Also, the “Ratio of Bcl-2 G101V/WT” value in assay [2] worked out at 2.9.
`CC(C)c1ccccc1[C@@H]1CN(Cc2ccc(F)c(F)c2)CCN1C1CC2(CCN(c3ccc(C(=O)NS(=O)(=O)c4ccc(NC[C@H]5CC[C@](C)(O)CC5)c([N+](=O)[O-])c4)c(Oc4cnc5[nH]ccc5c4)c3)CC2)C1` (single isomer, unassigned) [Example 52a, 2-((1H-pyrrolo[2,3-b]pyridin-5-yl)oxy)-4-(2-((R or S)-4-(3,4-difluorobenzyl)-2-(2-isopropylphenyl)piperazin-1-yl)-7-azaspiro[3.5]nonan-7-yl)-N-((4-((((1r,4r)-4-hydroxy-4-methylcyclohexyl)methyl)amino)-3-nitrophenyl)sulfonyl)benzamide]: the IC50 in assay [1] (setting [5]) turned out to be 0.16 nM; in assay [1] (setting [6]), 0.16 nM; in assay [3], 0.68 nM; in assay [4], 1.67 nM. Also, in assay [2], the “Ratio of Bcl-2 G101V/WT” value is recorded as 4.2.
On to `COc1ccc(CN2CCN(C3CC4(CCN(c5ccc(C(=O)NS(=O)(=O)c6ccc(NC[C@H]7CC[C@](C)(O)CC7)c([N+](=O)[O-])c6)c(Oc6cnc7[nH]ccc7c6)c5)CC4)C3)[C@H](c3ccccc3C(C)C)C2)cc1` [Example 19a, 2-((1H-pyrrolo[2,3-b]pyridin-5-yl)oxy)-N-((4-((((1r,4r)-4-hydroxy-4-methylcyclohexyl)methyl)amino)-3-nitrophenyl)sulfonyl)-4-(2-((R)-2-(2-isopropylphenyl)-4-(4-methoxybenzyl)piperazin-1-yl)-7-azaspiro[3.5]nonan-7-yl)benzamide], for which the IC50 amounted to 0.057 nM in assay [1] (setting [5]), 0.057 nM in assay [1] (setting [6]), 0.18 nM in assay [3] and 0.57 nM in assay [4]. Moreover, the “ratio of IC50 of Bcl-2 G101V/Bcl-2 wt, compared with Example F132b in WO2019210828 and ABT-199 (venetoclax)” value in assay [2] (comparison in words) was “much lower”. Besides, in assay [2], the “Ratio of Bcl-2 G101V/WT” value is 3.2.
Consider `CC(C)c1ccccc1C1CN(Cc2ccc(F)cc2)CCN1C1CC2(CCN(c3ccc(C(=O)NS(=O)(=O)c4ccc(NC[C@H]5CC[C@](C)(O)CC5)c([N+](=O)[O-])c4)c(Oc4cnc5[nH]ccc5c4)c3)CC2)C1` (some centres unmarked) [Example 28, 2-((1H-pyrrolo[2,3-b]pyridin-5-yl)oxy)-4-(2-(4-(4-fluorobenzyl)-2-(2-isopropylphenyl)piperazin-1-yl)-7-azaspiro[3.5]nonan-7-yl)-N-((4-((((1r,4r)-4-hydroxy-4-methylcyclohexyl)methyl)amino)-3-nitrophenyl)sulfonyl)benzamide], for which the IC50 was 0.23 nM in assay [1] (setting [5]), 0.23 nM in assay [1] (setting [6]), 0.82 nM in assay [3] and 2.69 nM in assay [4]. Besides, in assay [2], the “Ratio of Bcl-2 G101V/WT” value amounted to 3.6.
On to `CC(C)c1ccccc1C1CN(Cc2ccc(Cl)cc2)CCN1C1CC2(CCN(c3ccc(C(=O)NS(=O)(=O)c4ccc(NC[C@H]5CC[C@](C)(O)CC5)c([N+](=O)[O-])c4)c(Oc4cnc5[nH]ccc5c4)c3)CC2)C1` (some centres unmarked) [Example 29, 2-((1H-pyrrolo[2,3-b]pyridin-5-yl)oxy)-4-(2-(4-(4-chlorobenzyl)-2-(2-isopropylphenyl)piperazin-1-yl)-7-azaspiro[3.5]nonan-7-yl)-N-((4-((((1r,4r)-4-hydroxy-4-methylcyclohexyl)methyl)amino)-3-nitrophenyl)sulfonyl)benzamide], for which the IC50 in assay [1] (setting [5]) is 0.29 nM; in assay [1] (setting [6]), 0.29 nM; in assay [3], 1.5 nM; in assay [4], 2.95 nM. Also, the “Ratio of Bcl-2 G101V/WT” value in assay [2] was found to be 5.2.
As for `CC(C)c1ccccc1C1CN(Cc2ccc(C(F)(F)F)cc2)CCN1C1CC2(CCN(c3ccc(C(=O)NS(=O)(=O)c4ccc(NC[C@H]5CC[C@](C)(O)CC5)c([N+](=O)[O-])c4)c(Oc4cnc5[nH]ccc5c4)c3)CC2)C1` (some centres unmarked) [Example 41, 2-((1H-pyrrolo[2,3-b]pyridin-5-yl)oxy)-N-((4-((((1r,4r)-4-hydroxy-4-methylcyclohexyl)methyl)amino)-3-nitrophenyl)sulfonyl)-4-(2-(2-(2-isopropylphenyl)-4-(4-(trifluoromethyl)benzyl)piperazin-1-yl)-7-azaspiro[3.5]nonan-7-yl) benzamide], the IC50 came out at 0.83 nM in assay [1] (setting [5]), 0.83 nM in assay [1] (setting [6]), 3.8 nM in assay [3] and 7.2 nM in assay [4]. Besides, the “Ratio of Bcl-2 G101V/WT” value in assay [2] came to 4.6.
`CC(C)c1ccccc1C1CN(Cc2cccc(F)c2)CCN1C1CC2(CCN(c3ccc(C(=O)NS(=O)(=O)c4ccc(NC[C@H]5CC[C@](C)(O)CC5)c([N+](=O)[O-])c4)c(Oc4cnc5[nH]ccc5c4)c3)CC2)C1` (some centres unmarked) [Example 43, 2-((1H-pyrrolo[2,3-b]pyridin-5-yl)oxy)-4-(2-(4-(3-fluorobenzyl)-2-(2-isopropylphenyl)piperazin-1-yl)-7-azaspiro[3.5]nonan-7-yl)-N-((4-((((1r,4r)-4-hydroxy-4-methylcyclohexyl)methyl)amino)-3-nitrophenyl)sulfonyl)benzamide]: the IC50 in assay [1] (setting [5]) is 0.31 nM; in assay [1] (setting [6]), 0.31 nM; in assay [3] it was 1.3 nM; in assay [4], 3.27 nM. For the same compound, the “Ratio of Bcl-2 G101V/WT” value in assay [2] is 4.2.
As for `CC(C)c1ccccc1C1CN(Cc2ccccc2F)CCN1C1CC2(CCN(c3ccc(C(=O)NS(=O)(=O)c4ccc(NC[C@H]5CC[C@](C)(O)CC5)c([N+](=O)[O-])c4)c(Oc4cnc5[nH]ccc5c4)c3)CC2)C1` (some centres unmarked) [Example 46, 2-((1H-pyrrolo[2,3-b]pyridin-5-yl)oxy)-4-(2-(4-(2-fluorobenzyl)-2-(2-isopropylphenyl)piperazin-1-yl)-7-azaspiro[3.5]nonan-7-yl)-N-((4-((((1r,4r)-4-hydroxy-4-methylcyclohexyl)methyl)amino)-3-nitrophenyl)sulfonyl)benzamide], the IC50 in assay [1] (setting [5]) came to 0.34 nM; in assay [1] (setting [6]), 0.34 nM; in assay [3], 2.7 nM; in assay [4] it was 10.2 nM. In assay [2], the “Ratio of Bcl-2 G101V/WT” value was determined as 7.9.
As for `COc1ccc(CN2CCN(C3CC4(CCN(c5ccc(C(=O)NS(=O)(=O)c6ccc(NC[C@H]7CC[C@](C)(O)CC7)c([N+](=O)[O-])c6)c(Oc6cnc7[nH]ccc7c6)c5)CC4)C3)C(c3ccccc3C(C)C)C2)c(OC)c1` (some centres unmarked) [Example 48], the IC50 was found to be 0.072 nM in assay [1] (setting [5]), 0.072 nM in assay [1] (setting [6]), 0.33 nM in assay [3] and 1.9 nM in assay [4]. For the same compound, the “Ratio of Bcl-2 G101V/WT” value in assay [2] worked out at 4.6.
As to `CC(C)c1ccccc1C1CN(Cc2cc(F)cc(F)c2)CCN1C1CC2(CCN(c3ccc(C(=O)NS(=O)(=O)c4ccc(NC[C@H]5CC[C@](C)(O)CC5)c([N+](=O)[O-])c4)c(Oc4cnc5[nH]ccc5c4)c3)CC2)C1` (some centres unmarked) [Example 51, 2-((1H-pyrrolo[2,3-b]pyridin-5-yl)oxy)-4-(2-(4-(3,5-difluorobenzyl)-2-(2-isopropylphenyl)piperazin-1-yl)-7-azaspiro[3.5]nonan-7-yl)-N-((4-((((1r,4r)-4-hydroxy-4-methylcyclohexyl)methyl)amino)-3-nitrophenyl)sulfonyl)benzamide], the IC50 in assay [1] (setting [5]) amounted to 0.42 nM; in assay [1] (setting [6]), 0.42 nM; in assay [3], 1.6 nM; in assay [4] it was 4 nM. Moreover, the “Ratio of Bcl-2 G101V/WT” value in assay [2] was 3.8.
For `CC(C)c1ccccc1C1CN(Cc2ccc(F)c(F)c2)CCN1C1CC2(CCN(c3ccc(C(=O)NS(=O)(=O)c4ccc(NC[C@H]5CC[C@](C)(O)CC5)c([N+](=O)[O-])c4)c(Oc4cnc5[nH]ccc5c4)c3)CC2)C1` (some centres unmarked) [Example 52, 2-((1H-pyrrolo[2,3-b]pyridin-5-yl)oxy)-4-(2-(4-(3,4-difluorobenzyl)-2-(2-isopropylphenyl)piperazin-1-yl)-7-azaspiro[3.5]nonan-7-yl)-N-((4-((((1r,4r)-4-hydroxy-4-methylcyclohexyl)methyl)amino)-3-nitrophenyl)sulfonyl)benzamide], the IC50 in assay [1] (setting [5]) is 0.24 nM; in assay [1] (setting [6]), 0.24 nM; in assay [3] it was 0.73 nM; in assay [4], 2.7 nM. Also, in assay [2], the “Ratio of Bcl-2 G101V/WT” value amounted to 3.0.

Source of the values: patent publication US20240376097A1, “BCL-2 Inhibitor” (BeiGene Ltd., priority 2020, published 2024).
